Key:
BChE [1] = target: BChE (Cavia porcellus, UniProt H0V4F8); assay type: biochemical, guinea pig
BChE [2] = target: BChE (Homo sapiens, UniProt P06276); assay type: biochemical
BChE [3] = target: BChE (Rattus norvegicus, UniProt Q9JKC1); assay type: biochemical
Chain of BChE (Rattus norvegicus, UniProt Q9JKC1) (Q9JKC1 24-597 limits assumed): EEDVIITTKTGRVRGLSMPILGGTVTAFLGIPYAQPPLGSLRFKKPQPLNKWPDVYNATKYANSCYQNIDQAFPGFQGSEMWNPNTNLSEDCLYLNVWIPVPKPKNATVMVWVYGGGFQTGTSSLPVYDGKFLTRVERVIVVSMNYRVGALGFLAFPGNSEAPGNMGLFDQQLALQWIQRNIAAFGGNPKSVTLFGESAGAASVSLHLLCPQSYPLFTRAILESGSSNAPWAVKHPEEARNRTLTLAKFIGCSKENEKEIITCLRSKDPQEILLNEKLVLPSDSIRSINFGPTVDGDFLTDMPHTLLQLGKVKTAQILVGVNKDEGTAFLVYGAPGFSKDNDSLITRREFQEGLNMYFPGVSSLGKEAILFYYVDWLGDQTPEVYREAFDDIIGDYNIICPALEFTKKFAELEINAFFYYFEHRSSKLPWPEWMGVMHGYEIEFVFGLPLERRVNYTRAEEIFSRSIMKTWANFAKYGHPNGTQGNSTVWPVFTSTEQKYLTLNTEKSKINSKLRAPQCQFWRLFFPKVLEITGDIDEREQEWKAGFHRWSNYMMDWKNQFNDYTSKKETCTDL

Chain of BChE (Cavia porcellus, UniProt H0V4F8) (H0V4F8 29-602 limits assumed): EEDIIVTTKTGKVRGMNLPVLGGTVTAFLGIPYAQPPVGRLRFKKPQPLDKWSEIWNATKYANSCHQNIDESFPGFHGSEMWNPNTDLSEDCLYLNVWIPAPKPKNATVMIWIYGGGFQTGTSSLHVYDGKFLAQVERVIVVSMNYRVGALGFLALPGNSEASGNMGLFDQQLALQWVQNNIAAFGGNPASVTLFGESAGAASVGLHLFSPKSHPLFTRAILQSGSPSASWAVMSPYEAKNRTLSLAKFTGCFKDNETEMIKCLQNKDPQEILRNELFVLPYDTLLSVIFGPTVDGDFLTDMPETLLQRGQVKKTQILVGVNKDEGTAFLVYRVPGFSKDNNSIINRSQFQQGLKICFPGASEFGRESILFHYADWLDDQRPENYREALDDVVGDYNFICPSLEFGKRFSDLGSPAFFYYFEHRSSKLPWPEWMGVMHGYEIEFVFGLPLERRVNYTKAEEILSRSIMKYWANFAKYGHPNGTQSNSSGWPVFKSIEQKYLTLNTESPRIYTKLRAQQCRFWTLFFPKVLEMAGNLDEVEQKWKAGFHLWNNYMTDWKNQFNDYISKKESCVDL
Chain of BChE (Homo sapiens, UniProt P06276) (P06276 29-602): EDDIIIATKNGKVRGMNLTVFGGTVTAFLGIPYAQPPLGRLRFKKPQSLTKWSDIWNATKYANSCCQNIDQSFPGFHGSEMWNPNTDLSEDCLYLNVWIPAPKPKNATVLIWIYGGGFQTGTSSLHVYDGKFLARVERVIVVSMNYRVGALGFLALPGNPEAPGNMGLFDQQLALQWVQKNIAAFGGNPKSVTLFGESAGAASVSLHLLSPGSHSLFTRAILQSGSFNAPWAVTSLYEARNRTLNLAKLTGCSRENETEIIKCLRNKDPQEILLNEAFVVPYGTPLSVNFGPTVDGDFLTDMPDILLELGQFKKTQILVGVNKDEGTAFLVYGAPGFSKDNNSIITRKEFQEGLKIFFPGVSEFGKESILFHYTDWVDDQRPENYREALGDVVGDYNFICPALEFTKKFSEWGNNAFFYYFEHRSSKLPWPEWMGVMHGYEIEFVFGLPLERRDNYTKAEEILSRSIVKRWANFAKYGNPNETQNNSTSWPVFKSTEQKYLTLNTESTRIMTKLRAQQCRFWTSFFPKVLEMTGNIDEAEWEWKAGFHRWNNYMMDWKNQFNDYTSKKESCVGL

| Compound | OP Inhibitory Concentrations of at least 80% BChE (BChE [1]) | OP Inhibitory Concentrations of at least 80% BChE (BChE [2]) | OP Inhibitory Concentrations of at least 80% BChE (BChE [3]) | BChE inhibitory potency relative to phorate oxon (BChE [3]) |
| --- | --- | --- | --- | --- |
| CCOP(=O)(OCC)Oc1ccc([N+](=O)[O-])cc1 [PXN, phosphoric acid diethyl 4-nitrophenyl ester] | 0.178 µM | 0.032 µM | 1.78 µM |  |
| CCOP(=O)(OCC)SC[S+]([O-])CC (centres unmarked) [PHOsox, phorate oxon sulfoxide] |  |  | 1.00 µM | ten-fold more potent |
| CCOP(=O)(OCC)SCSCC [PHO, phorate oxon] | 5.60 µM | 0.178 µM | 10.0 µM |  |
